Data: PMC9779606, “Synthesis, Structural Characterization and Biological Activity Evaluation of Novel Cu(II) Complexes with 3-(trifluoromethyl)phenylthiourea Derivatives” (International Journal of Molecular Sciences, 2022)
Where two headings read alike, the source gives them in different places.

Columns and labels:
S. aureus 498 = experiment: MIC, hospital methicillin-resistant strains (MRSA); conditions: hospital MRSA strain S. aureus 498
[1] = test system: methicillin-resistant Staphylococci (MRSA, MRSE); conditions: for MIC level against hospital staphylococcal strains: all hospital staphylococcal strains, Table 5
S. epidermidis 438 = experiment: MIC, hospital methicillin-resistant strains (MRSE); conditions: hospital MRSE strain S. epidermidis 438
S. aureus ATCC 25923 = experiment: MIC, twofold serial microdilution, standard strains; conditions: S. aureus ATCC 25923, standard strain
S. aureus NCTC 4163 = experiment: as above; conditions: S. aureus NCTC 4163, standard strain
[2] = test system: M. tuberculosis Spec. 192; experiment: Tuberculostatic activity, Microplate Alamar Blue Assay (MABA); assay type: cell-based, Mycobacterium tuberculosis; conditions: M. tuberculosis Spec. 192, patient isolate fully sensitive to tuberculostatics, MABA
P. aeruginosa ATCC 15442 = experiment: MIC, twofold serial microdilution, standard strains; conditions: P. aeruginosa ATCC 15442, standard strain
S. aureus 573 = experiment: MIC, hospital methicillin-resistant strains (MRSA); conditions: hospital MRSA strain S. aureus 573
S. epidermidis 511 = experiment: MIC, hospital methicillin-resistant strains (MRSE); conditions: hospital MRSE strain S. epidermidis 511
[3] = test system: HaCaT (immortalized human keratinocytes); experiment: Cytotoxicity, MTT assay; assay type: cell-based; conditions: normal cells, 72 h, mean SD
Description: (§1) MTT assay was performed as previously described. Experiments were repeated three times. […] Decreased relative MTT level means decreased cell viability.

E. coli ATCC 25922 = experiment: MIC, twofold serial microdilution, standard strains; conditions: E. coli ATCC 25922, standard strain
S. aureus ATCC 29213 = experiment: as above; conditions: S. aureus ATCC 29213, standard strain
S. aureus 585 = experiment: MIC, hospital methicillin-resistant strains (MRSA); conditions: hospital MRSA strain S. aureus 585
C. albicans ATCC 10231 = experiment: MIC, twofold serial microdilution, standard fungal strains; conditions: C. albicans ATCC 10231, standard strain
S. epidermidis 435 = experiment: MIC, hospital methicillin-resistant strains (MRSE); conditions: hospital MRSE strain S. epidermidis 435
S. epidermidis 432 = experiment: MIC, hospital methicillin-resistant strains (MRSE); conditions: hospital MRSE strain S. epidermidis 432
S. aureus 496 = experiment: MIC, hospital methicillin-resistant strains (MRSA); conditions: hospital MRSA strain S. aureus 496
S. epidermidis 431 = experiment: MIC, hospital methicillin-resistant strains (MRSE); conditions: hospital MRSE strain S. epidermidis 431
S. epidermidis 423 = experiment: MIC, hospital methicillin-resistant strains (MRSE); conditions: hospital MRSE strain S. epidermidis 423
S. epidermidis 515 = experiment: MIC, hospital methicillin-resistant strains (MRSE); conditions: hospital MRSE strain S. epidermidis 515
S. aureus 537 = experiment: MIC, hospital methicillin-resistant strains (MRSA); conditions: hospital MRSA strain S. aureus 537
staphylococcal isolates = experiment: MIC, standard staphylococcal strains; conditions: text summary of Table 4
[4] = target: T1, S. aureus topoisomerase IV (Staphylococcus aureus, UniProt P0C1S7+P0C1U9); experiment: S. aureus topoisomerase IV decatenation assay; assay type: biochemical; conditions: kDNA decatenation, 30 min at 37 °C
T1 construct: purchased Inspiralis, Norwich, UK
T1 sequence (P0C1S7 whole entry): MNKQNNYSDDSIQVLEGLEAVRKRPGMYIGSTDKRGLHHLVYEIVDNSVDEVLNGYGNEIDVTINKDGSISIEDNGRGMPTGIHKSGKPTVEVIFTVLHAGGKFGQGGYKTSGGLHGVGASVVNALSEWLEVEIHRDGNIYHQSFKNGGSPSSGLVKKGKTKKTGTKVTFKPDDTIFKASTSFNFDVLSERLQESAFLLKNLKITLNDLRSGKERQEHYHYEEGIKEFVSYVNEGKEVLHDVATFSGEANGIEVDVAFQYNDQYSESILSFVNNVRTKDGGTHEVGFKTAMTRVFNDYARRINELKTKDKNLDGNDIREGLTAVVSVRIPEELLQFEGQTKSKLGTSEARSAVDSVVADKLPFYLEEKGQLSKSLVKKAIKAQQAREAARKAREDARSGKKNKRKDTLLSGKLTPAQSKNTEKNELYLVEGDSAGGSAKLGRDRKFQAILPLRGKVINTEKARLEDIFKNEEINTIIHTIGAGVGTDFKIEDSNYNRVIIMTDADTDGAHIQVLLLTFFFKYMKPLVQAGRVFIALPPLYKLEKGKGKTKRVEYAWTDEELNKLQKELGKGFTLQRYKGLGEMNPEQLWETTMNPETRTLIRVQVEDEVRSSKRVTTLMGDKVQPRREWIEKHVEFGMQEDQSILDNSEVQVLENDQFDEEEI
T1 sequence (P0C1U9 whole entry): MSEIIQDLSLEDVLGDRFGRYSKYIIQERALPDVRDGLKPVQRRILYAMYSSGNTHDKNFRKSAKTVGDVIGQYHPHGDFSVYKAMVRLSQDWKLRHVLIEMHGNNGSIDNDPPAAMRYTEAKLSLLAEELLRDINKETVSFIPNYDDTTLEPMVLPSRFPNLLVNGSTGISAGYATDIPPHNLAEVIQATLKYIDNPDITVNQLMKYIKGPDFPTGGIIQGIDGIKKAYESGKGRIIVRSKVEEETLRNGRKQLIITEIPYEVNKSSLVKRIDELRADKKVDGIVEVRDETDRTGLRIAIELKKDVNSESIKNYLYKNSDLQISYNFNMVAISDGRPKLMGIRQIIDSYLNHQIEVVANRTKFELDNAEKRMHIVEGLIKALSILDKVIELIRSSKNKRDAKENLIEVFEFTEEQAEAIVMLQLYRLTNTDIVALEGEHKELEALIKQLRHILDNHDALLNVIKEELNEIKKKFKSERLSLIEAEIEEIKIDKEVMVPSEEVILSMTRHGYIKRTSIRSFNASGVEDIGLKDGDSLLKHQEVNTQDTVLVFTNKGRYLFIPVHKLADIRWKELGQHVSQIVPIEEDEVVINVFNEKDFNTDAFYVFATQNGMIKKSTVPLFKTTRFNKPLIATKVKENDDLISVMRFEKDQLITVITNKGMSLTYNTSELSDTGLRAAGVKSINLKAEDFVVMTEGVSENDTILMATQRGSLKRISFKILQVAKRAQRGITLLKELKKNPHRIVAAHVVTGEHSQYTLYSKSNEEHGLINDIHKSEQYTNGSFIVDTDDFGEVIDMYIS
Description: The assay was performed using a S. aureus topoisomerase IV decantation kit (Inspiralis, Norwich, UK). Kinetoplast DNA (kDNA) was the substrate for topoisomerase IV. Firstly, 1 U of topoisomerase IV decatenated 200 ng of kDNA, in the dedicated decantation assay buffer supplied by the manufacturer. […] The reactions were terminated by adding an equal volume of STEB buffer (40% sucrose, 100 mM Tris-HCl pH 8, 1 mM EDTA, 0.5 mg/mL bromophenol blue), followed by extraction with 1 volume of chloroform/isoamyl alcohol (24:1). Then, 20 µL of the aqueous phase of each sample was loaded onto a 1% agarose gel. Electrophoresis was conducted in Tris-acetate-EDTA buffer for 1.5 h at 80 V. Gels were stained with ethidium bromide and visualized under UV light in a transilluminator (ChemiDoc MP, Bio-Rad, Hercules, CA, USA).

S. aureus DNA gyrase = target: T2, S. aureus DNA gyrase (Staphylococcus aureus, UniProt P0A0K8+P20831); experiment: S. aureus DNA gyrase supercoiling assay; assay type: biochemical; conditions: pBR322 supercoiling, 30 min at 37 °C
T2 construct: purchased Inspiralis, Norwich, UK
T2 sequence (P20831 whole entry): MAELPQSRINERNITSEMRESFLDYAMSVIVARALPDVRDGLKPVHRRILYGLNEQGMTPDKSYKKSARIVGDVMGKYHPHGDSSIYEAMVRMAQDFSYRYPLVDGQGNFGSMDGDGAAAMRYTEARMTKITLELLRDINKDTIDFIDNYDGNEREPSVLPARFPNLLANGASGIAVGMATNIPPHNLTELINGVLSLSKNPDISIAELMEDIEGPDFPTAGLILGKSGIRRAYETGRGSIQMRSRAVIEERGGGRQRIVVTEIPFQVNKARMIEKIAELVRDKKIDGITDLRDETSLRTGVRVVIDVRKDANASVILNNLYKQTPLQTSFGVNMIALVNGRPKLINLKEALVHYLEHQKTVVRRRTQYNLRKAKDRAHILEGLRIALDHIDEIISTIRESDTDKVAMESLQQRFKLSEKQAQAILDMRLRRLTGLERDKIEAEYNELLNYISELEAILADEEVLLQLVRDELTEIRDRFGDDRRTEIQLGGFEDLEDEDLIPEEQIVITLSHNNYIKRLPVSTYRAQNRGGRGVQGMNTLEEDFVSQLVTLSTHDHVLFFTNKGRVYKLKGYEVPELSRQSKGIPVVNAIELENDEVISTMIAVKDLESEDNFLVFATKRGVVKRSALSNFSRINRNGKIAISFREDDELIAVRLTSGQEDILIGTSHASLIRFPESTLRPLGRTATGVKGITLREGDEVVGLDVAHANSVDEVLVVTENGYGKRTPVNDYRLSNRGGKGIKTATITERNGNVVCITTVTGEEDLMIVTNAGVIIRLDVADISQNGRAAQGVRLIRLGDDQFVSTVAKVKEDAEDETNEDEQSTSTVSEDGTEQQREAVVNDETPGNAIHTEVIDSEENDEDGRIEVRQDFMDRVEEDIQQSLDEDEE
T2 sequence (P0A0K8 whole entry): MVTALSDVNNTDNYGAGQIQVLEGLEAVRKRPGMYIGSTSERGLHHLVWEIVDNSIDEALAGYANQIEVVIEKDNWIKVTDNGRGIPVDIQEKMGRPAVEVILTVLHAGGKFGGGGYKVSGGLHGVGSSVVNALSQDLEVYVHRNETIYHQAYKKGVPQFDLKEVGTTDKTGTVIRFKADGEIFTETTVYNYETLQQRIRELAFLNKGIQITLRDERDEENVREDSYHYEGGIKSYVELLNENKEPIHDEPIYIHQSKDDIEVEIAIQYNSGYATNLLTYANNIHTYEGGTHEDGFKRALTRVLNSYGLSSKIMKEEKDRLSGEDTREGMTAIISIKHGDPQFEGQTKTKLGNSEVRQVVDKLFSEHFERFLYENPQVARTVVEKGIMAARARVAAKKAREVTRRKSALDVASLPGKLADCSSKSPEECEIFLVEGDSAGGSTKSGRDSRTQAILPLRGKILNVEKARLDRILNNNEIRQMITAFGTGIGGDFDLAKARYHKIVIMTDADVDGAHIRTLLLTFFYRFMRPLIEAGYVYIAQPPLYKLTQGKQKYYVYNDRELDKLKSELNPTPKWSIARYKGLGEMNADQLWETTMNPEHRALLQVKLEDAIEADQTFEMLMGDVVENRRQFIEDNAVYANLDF
Description: The assay was performed using a S. aureus DNA Gyrase Supercoiling kit (Inspiralis, Norwich, UK). The activity of DNA topoisomerase II was determined by measuring the conversion of relaxed pBR322 DNA to its supercoiled form. The reaction mixture contained 500 ng of mMpBR322 plasmid DNA and 1 U of enzyme and different concentrations of the compound in a total reaction volume of 30 µL. The mixture was incubated for 30 min at 37 °C. The reactions were terminated by adding an equal volume of STEB buffer (40% sucrose, 100 mM Tris-HCl pH 8, 1 mM EDTA, 0.5 mg/mL bromophenol blue), followed by extraction with 1 volume of chloroform/isoamyl alcohol (24:1). Then, 20 µL of the aqueous phase of each sample was loaded onto a 1% agarose gel. Electrophoresis was conducted in Tris-acetate-EDTA buffer for 3 h at 50 V. Gels were stained with ethidium bromide and visualized under UV light in a transilluminator (ChemiDoc MP, Bio-Rad, Hercules, CA, USA).

SW480, SW620, and PC3 = experiment: Cytotoxicity, MTT assay, all cancer cell lines; assay type: cell-based, human; conditions: 72 h, read-out: IC50 towards all investigated cancer cells
Description: as §1

| SMILES | MIC (S. aureus 498) [µg/mL] | MIC (S. epidermidis 438) [µg/mL] | MIC (S. aureus ATCC 25923) [µg/mL] | MIC (S. aureus NCTC 4163) [µg/mL] | MIC [2] [µg/mL] | MIC (P. aeruginosa ATCC 15442) [µg/mL] | MIC (S. aureus 573) [µg/mL] | MIC (S. epidermidis 511) [µg/mL] | IC50 [3] [µM] | MIC (E. coli ATCC 25922) [µg/mL] | MIC (S. aureus ATCC 29213) [µg/mL] | MIC (S. aureus 585) [µg/mL] | MIC (C. albicans ATCC 10231) [µg/mL] | MIC (S. epidermidis 435) [µg/mL] | MIC (S. epidermidis 432) [µg/mL] | MIC (S. aureus 496) [µg/mL] | MIC (S. epidermidis 431) [µg/mL] | MIC (S. epidermidis 423) [µg/mL] | MIC (S. epidermidis 515) [µg/mL] | MIC (S. aureus 537) [µg/mL] | also measured |
| --- | --- | --- | --- | --- | --- | --- | --- | --- | --- | --- | --- | --- | --- | --- | --- | --- | --- | --- | --- | --- | --- |
| FC(F)(F)c1cccc([N-]C(=S)NCc2ccccc2)c1.FC(F)(F)c1cccc([N-]C(=S)NCc2ccccc2)c1.[Cu+2] [Cu3, Copper(II) Complex with 1-benzyl-3-[3-(trifluoromethyl)phenyl]thiourea] | 64 | 64 | 64 | 64 | 16 | ≥256 | 64 | 64 | 65 ± 4.7 | ≥256 | 64 | 64 | 32 | 64 | 64 | 64 | 64 | 64 | 64 | 64 | MIC level against hospital staphylococcal strains [1]: 8 to 128 µg/mL |
| FC(F)(F)c1cccc([N-]C(=S)Nc2cccc(Br)c2)c1.FC(F)(F)c1cccc([N-]C(=S)Nc2cccc(Br)c2)c1.[Cu+2] [Cu4, Copper(II) Complex with 1-(3-bromophenyl)-3-[3-(trifluoromethyl)phenyl] thiourea] | 8 | 8 | 8 | 8 | 4 | ≥256 | 8 | 8 | 388 ± 4.4 | 128 | 8 | 8 | ≥256 | 8 | 8 | 8 | 8 | 8 | 8 | 8 | MIC level against hospital staphylococcal strains [1]: 8 to 128 µg/mL; MIC, staphylococcal isolates (staphylococcal isolates): 8 µg/mL |
| O.O=[N+]([O-])c1cc(NC(=S)[N-]c2cccc(C(F)(F)F)c2)ccc1Cl.O=[N+]([O-])c1cc(NC(=S)[N-]c2cccc(C(F)(F)F)c2)ccc1Cl.[Cu+2] [Cu5, Copper(II) Complex with 1-(4-chloro-3-nitrophenyl)-3-[3-(trifluoromethyl)phenyl]thiourea] | 2 | 2 | 4 | 4 | 4 | 128 | 2 | 4 | 134 ± 2.9 | 128 | 4 | 4 | 128 | 2 | 2 | 2 | 2 | 4 | 4 | 4 | MIC, methicillin-resistant Staphylococci ([1]; 19 strains (above half) of tested hospital Staphylococci): 2 µg/mL; MIC, methicillin-resistant Staphylococci ([1]; S. aureus 537, 585, and 586 strains and half of the S. epidermidis isolates): 4 µg/mL; MIC, staphylococcal isolates (staphylococcal isolates): 4 µg/mL; IC50 ± S.E.M. for Topo IV [4]: 6.20 ± 0.50 µg/mL; IC50 ± S.E.M. for Gyrase (S. aureus DNA gyrase): 16.80 ± 0.75 µg/mL; IC50 (SW480, SW620, and PC3): 11.7 to 19.5 µM |
| CC(NC(=S)[N-]c1cccc(C(F)(F)F)c1)c1ccccc1.CC(NC(=S)[N-]c1cccc(C(F)(F)F)c1)c1ccccc1.[Cu+2] (racemic) [Cu2, Copper(II) Complex with 1-(1-phenylethyl)-3-[3-(trifluoromethyl)phenyl]thiourea] | 8 | 16 | 32 | 32 | 8 | 128 | 8 | 16 | 220 ± 3.4 | ≥256 | 32 | 8 | 128 | 16 | 16 | 16 | 16 | 16 | 16 | 8 | MIC level against hospital staphylococcal strains [1]: 8 to 128 µg/mL |
| FC(F)(F)c1cccc([N-]C(=S)NCCc2ccccc2)c1.FC(F)(F)c1cccc([N-]C(=S)NCCc2ccccc2)c1.O.[Cu+2] [Cu1, Copper(II) Complex with 1-(2-phenylethyl)-3-[3-(trifluoromethyl)phenyl]thiourea] | 64 | 128 | 64 | 64 | 16 | 128 | 64 | 128 | 421 ± 5.2 | ≥256 | 64 | 64 | 128 | 64 | 64 | 64 | 128 | 64 | 128 | 64 | MIC level against hospital staphylococcal strains [1]: 8 to 128 µg/mL |
